Measured values published in patent publication US12428370B2, “Haloallylamine dual amine oxidase inhibitors” (Syntara Limited, priority 2020, dated 2025).
Where a name gives a salt, the structure may show the parent alone.

Legend:
recombinant human MAO-A = biological target: T1, recombinant human MAO-A (Homo sapiens, UniProt P21397); assay: Inhibition of human recombinant MAO-A; type: biochemical; settings: incubation time of 2 hours, tyramine 100 μM
T1 construct: purchased Sigma Aldrich
T1 sequence (P21397 1-527): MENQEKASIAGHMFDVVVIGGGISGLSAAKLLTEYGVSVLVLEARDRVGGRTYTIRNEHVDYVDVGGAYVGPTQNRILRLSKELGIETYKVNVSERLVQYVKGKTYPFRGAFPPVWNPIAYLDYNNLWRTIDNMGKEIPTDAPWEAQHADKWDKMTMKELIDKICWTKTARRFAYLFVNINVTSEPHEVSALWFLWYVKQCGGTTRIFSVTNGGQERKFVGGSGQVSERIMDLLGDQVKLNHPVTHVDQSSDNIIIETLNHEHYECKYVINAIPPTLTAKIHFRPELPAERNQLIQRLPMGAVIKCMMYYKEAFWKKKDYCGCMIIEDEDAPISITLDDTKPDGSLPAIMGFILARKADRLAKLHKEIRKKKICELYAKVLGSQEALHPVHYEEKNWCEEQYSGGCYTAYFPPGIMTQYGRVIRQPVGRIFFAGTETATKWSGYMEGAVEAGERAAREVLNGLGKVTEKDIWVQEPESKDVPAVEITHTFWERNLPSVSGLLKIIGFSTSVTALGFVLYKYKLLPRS
Protocol: Method to Determine the Ability of Compounds of Formula I to Inhibit Human Recombinant MAO-A
The selectivity of the compounds of this invention was tested by determining their ability to inhibit MAO-A activity in vitro, using recombinant human MAO-A (0.003 mg/mL; Sigma Aldrich). The assay was performed in a similar way as for human SSAO/VAP-1 (EXAMPLE 9) except, the substrate tyramine was used at 100 μM in place of benzylamine and the assay was run after an incubation time of 2 hours.

[1] = Stability of Compound 1 in a grape syrup formulation; type: physicochemical
Protocol: Methylparahydroxybenzoate (126.2 mg), propylparahydroxybenzoate (20.0 mg), sodium phosphate monobasic (1%, 1.0 g) and saccharose (16.56 g) were dissolved in 100 mL purified water, vortexed for 10 min, followed by sonication for 30 min, and then filtered through a 0.45 μm filter. pH adjusted to pH 5 using 0.5 M NaOH. To 50 mL of the resultant solution was added grape flavor (LorAnnOils, 0180-0800; 1%, 0.5 mL), followed by 50 mg of Compound 1 to attain a final concentration of 1 mg/mL. Split into two 25 mL portions, one frozen, and one left at room temperature (rt) in a sealed falcon tube.

[2] = biological target: T2, Muscle and Heart Tissue MAO-A (Mus musculus, UniProt Q64133); assay: Mouse muscle and heart tissue MAO-A activity after oral administration; type: in vivo
T2 construct: Skeletal muscle was pulverized in liquid nitrogen and then suspended in ice-cold HEPES buffered media; from tissue; host or cells: skeletal muscle and heart of C57BL/6J and mdx mice (mitochondrial extract)
T2 sequence (Q64133 1-526): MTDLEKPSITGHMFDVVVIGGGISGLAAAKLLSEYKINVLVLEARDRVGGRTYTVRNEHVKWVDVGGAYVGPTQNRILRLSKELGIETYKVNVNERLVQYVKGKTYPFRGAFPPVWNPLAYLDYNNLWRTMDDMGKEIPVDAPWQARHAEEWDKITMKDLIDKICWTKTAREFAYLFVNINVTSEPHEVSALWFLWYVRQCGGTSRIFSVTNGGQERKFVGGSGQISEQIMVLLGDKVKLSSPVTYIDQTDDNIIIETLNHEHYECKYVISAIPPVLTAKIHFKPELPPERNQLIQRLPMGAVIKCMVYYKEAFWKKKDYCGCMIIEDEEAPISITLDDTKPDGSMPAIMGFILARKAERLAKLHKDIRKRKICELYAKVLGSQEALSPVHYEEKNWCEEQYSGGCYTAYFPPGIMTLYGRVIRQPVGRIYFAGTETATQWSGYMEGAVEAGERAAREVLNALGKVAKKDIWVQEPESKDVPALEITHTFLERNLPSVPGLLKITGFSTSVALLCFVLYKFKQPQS
Protocol: Mice were orally administered the compound under study and sacrificed at various time points and abdominal fat, muscle and heart tissue collected.
Skeletal muscle was pulverized in liquid nitrogen and then suspended in ice-cold HEPES buffered media (20 mM HEPES, 0.8% w/v free-fatty acid bovine serum albumin (BSA), 75 mM sucrose, 10 mM EDTA, 215 mM D-mannitol, pH 7.4). Homogenized and then centrifuged at 2,500 rpm for 10 minutes at 4° C. Supernatant transferred and centrifuged at 10,000 rpm for 8 minutes. Supernatant discarded and the resultant pellet containing the mitochondrial extract re-suspended in 0.1 M sodium phosphate buffer solution (1:3 ratio).
Heart muscle was washed with PBS solution three times over ice. Homogenate and extract was then prepared as described for the skeletal muscle.
MAO-A activity was determined by using a selective MAO-B inhibitor mofegiline (at 30 nM) to establish the high signal and a mixture of specific MAO-A inhibitor (clorgyline) and mofegiline (at 30 nM) to determine the low signal.
Activity of the treated samples was analyzed using the fluorometric method described in EXAMPLE 9 for SSAO/VAP-1 activity, EXAMPLE 10 for MAO-B and EXAMPLE 11 for MAO-A activity (FIG. 8 and FIG. 9).

| SMILES | IC50 (recombinant human MAO-A) [µM] | degradation in grape syrup formulation ([1]; 91 days at room temperature) | Purity of Compound 1 stored at rt for 91 days as measured by HPLC/area under the curve at 265 nm ([1]; grape syrup formulation 1 mg/mL, pH 5, rt, 91 days) [%] | Purity of Compound 1 stored at −20° C. for 91 days as measured by HPLC/area under the curve at 265 nm ([1]; grape syrup formulation 1 mg/mL, pH 5, −20° C., 91 days) [%] | heart and muscle MAO-A activity ([2]; C57BL/6J mice, single oral dose, 4 and 24 hours after administration, FIG. 9) | muscle MAO-A activity ([2]; mdx mice (C57BL/10ScSn-Dmdmdx/J), oral, FIG. 11) |
| --- | --- | --- | --- | --- | --- | --- |
| NC/C(=C\F)C1Cc2ccccc2O1 (single isomer, unassigned; (-)) [PXS-5131, (−)-(E)-2-(2,3-Dihydrobenzofuran-2-Yl)-3-Fluoroprop-2-En-1-Amine Hydrochloride] | 0.3 to 3 |  |  |  |  |  |
| N#Cc1ccc(OC/C(=C/F)CN)cc1 [Compound 1, (E)-4-((2-(aminomethyl)-3-fluoroallyl)oxy) benzonitrile] | > 30 | no discernible degradation | 99.785 | 99.781 | no inhibitory effect | no inhibitory effect |
